Laboratory results: patent US11105794B2, “In vitro nephrotoxicity screening assay” (Hoffmann-La Roche Inc., priority 2016, dated 2021)
l = locked nucleic acid (LNA); d = 2'-deoxy (DNA)

Columns and labels:
[1] = system: Wistar Han Crl:WI(Han) male rats; experiment: In vivo nephrotoxicity in rats; conditions: 40 mg/kg on days 1 and 8, assessed day 15, 40 mg/kg
Procedure: Purpose bred Wistar Han Crl:WI(Han) male rats obtained from Charles River Laboratories at 7 to 8 weeks of age were divided into groups of 4 (table 1, exp. A) or 8 (table 1, exp. B) based on body weight and acclimatized for at least 5 days before dosing. The animals were housed under standard environmental conditions ([…], relative humidity 50±20%, a light/dark cycle 12 h/12 h, pelleted food and water ad libitum), were offered enriched environment in an AAALAC accredited facility and were regularly and carefully monitored. All procedures were in accordance with the respective local regulations and according to the animal permissions granted by the Institutional Animal Care and Use Committee. Test compounds were formulated in isotonic sterile saline, sterile filtered (0.22 μm), and dosed at 40 mg/kg on days 1 and 8 (2.5 ml/kg) in the intrascapular region. Control group animals received saline as vehicle control. On day 15 animals were orally administered tap water (10 ml/kg), and urine was collected on ice for 6 hours in metabolic cages. […] On day 15 the rats were sacrificed by an intraperitoneal injection of pentobarbital and exsanguinated. Kidney cortex samples were collected and fixed by immersion in 10% neutral buffered formalin, embedded in paraffin, sectioned to 5 μm and stained with hematoxylin and eosin (H&). The H&E sections were then scanned at 20× magnification using an Aperio ScanScope AT™ (Leica Biosystems) scanner and pictures were then captured via ImageScope™ software from the scanned images. One or more of the following parameters were assessed kidney weight, serum creatinine, urine protein, KIM-1 protein in urine, KIM-1 mRNA, kidney degeneration/regeneration and relative tubulotoxicity grade.

PTEC-TERT1 cells [2] = experiment: Morphological changes of PTEC-TERT1 cells upon oligonucleotide treatment; format: cell-based, human; conditions: 100 μM oligonucleotide, 7 days, bright field microscopy, vs saline
Procedure: PTEC-TERT1 cells were cultures as described in the “Materials and methods” section. To mimic the physiological exposure of renal tubules to circulating naked oligonucleotide (i.e. without assistance of delivery technology, herein termed gymnosis or gymnotic delivery), confluent monolayers of PTEC-TERT1 cells were exposed to an aqueous solution of 100 μM oligonucleotide. The medium was replaced every three days including 100 μM fresh oligonucleotide in the fresh medium.
After 7 days of treatment the morphological alterations in the treated cell cultures were investigated under bright field microscopy.

[3] = system: Primary human hepatocytes; experiment: EGF assay, culture media of primary human hepatocytes; format: cell-based; conditions: 10 ng/ml EGF in medium;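 note: values as percent of saline vehicle control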
Procedure: Cryopreserved human hepatocytes were suspended in William's Medium E (WME) without phenol red (Sigma W-1878) supplemented with 10% fetal calf serum, penicillin (100 U/ml), streptomycin (0.1 mg/ml) at a density of approx. 1×10^6 cells/ml and seeded into collagen-coated 96-well plates (Becton Dickinson AG, Allschwil, Switzerland) at a density of 0.4×10^5 cells/well. Cells were pre-cultured for 3 to 4 h allowing for attachment to cell culture plates before start of treatment with oligonucleotides.
Before oligonucleotide treatment the seeding medium was replaced by 90 μl of serum free WME.
The total volume of each well was 100 μl. PBS served as vehicle control.
Human primary hepatocytes were cultivated as described in the “Materials and methods” section with addition of 10 ng/ml of EGF to the medium. At confluence the cells were treated with oligonucleotide as described in the “Materials and methods” section, in concentrations of 10 or 100 μM.
The medium was obtained at day 3, and the EGF level was measured according to the assay described in the “Materials and methods” section.

A549 cells = experiment: EGF assay, A549 cells transfected with oligonucleotide; format: cell-based, human; conditions: A549, 48 hours after transfection;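 note: values as percent of saline control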
Procedure: A549 cells (ATCC CCL-185) were cultivated according to the manufacturer's instructions in A549 medium [F-12K Nut Mix (Gibco, 21127-022), 1% penicillin/streptomycin (Gibco: 15140-122), 10% FBS (Gibco 16000-044)].
Prior to treatment with oligonucleotides the A549 cells were seeded in 96 well plates at 3′000 cells per well in A549 regular medium and grown until 60% confluence. […]
A549 were cultivated as described in the “Materials and methods” section. At after at 50-60% confluence the oligonucleotides were transfected into the cells using 0.5 μl Lipofectamin (Invitrogen, 11668-019) in 25 μl OptiMEM® (GIBCO 31985062) and 1 ng or 10 ng oligonucleotide in the same volume OptiMEM. The cells were incubated over night at 37° C. The medium was changed using A459 regular medium+10 ng/ml EGF. 48 hours after transfection the medium was collected for EGF measurements and the cells were harvested for ATP measurements.

PCSK9 mRNA = experiment: Target knock down (PCSK9 mRNA levels) in PTEC-TERT1 cells; format: cell-based, human; conditions: normalized to PPIB
Procedure: For assessment of the target knock down (PCSK9 mRNA levels) total mRNA was extracted from the cells adding 100 μl of 1× RNA lysis mixture (QuantiGene® Sample Processing Kit, QS0101) directly into the wells according to the manufacturer's instructions. RNA lysis mixtures were kept at −80° C. until analysis. For gene expression analysis, 20 μl of lysates were mixed with an mRNA-capture magnetic beads sets (Panomics QuantiGene® Plex Set catalog #12697), incubated overnight, processed for branched DNA amplification and analyzed according to the manufacturer's instructions (Panomics QuantiGene® Plex Assay kit, QP1015). The PPIB probe was used as housekeeping gene for normalization. Average Fluoresence Intensity (FI) and standard deviation of 3 biological replicates were calculated and normalized on vehicle control. The results are shown in table 11, and represent the average of three identical treatments.

PTEC-TERT1 cells [4] = experiment: EGF assay, supernatant of PTEC-TERT1 cells; conditions: for Toxicity grade: from EGF, assay window saline vs toxic reference compound 4-1
Procedure: Prior to treatment with oligonucleotides the PTEC-TERT1 were seeded into collagen I-coated 96-well plates (Corning, 356407) at a density of 40 000 and 20 000 cells/well respectively in PTEC medium and grown until confluence.
Oligonucleotides were dissolved in PBS and added to the cell culture at the given concentration, such as 10, 30 or 100 μM. The total volume of each well was 100 μl. PBS served as vehicle control.
When extra cellular markers, like EGF and KIM-1, were analyzed following the oligonucleotide treatment the medium was collected and stored at −20° C. until further analysis. […] The collected medium was stored at −20° C.
For analysis of human EGF, cell supernatants were thawed on ice, diluted 1:2 and 1:10 in sample dilution buffer (BioRad catalog # M60-009RDPD) and analyzed by Luminex®-based ELISA using human EGF beads (Bio-Plex Pro™ Human Cancer Biomarker Panel 2 EGF Set#171BC603M), or followed by analysis using the Bio-Plex® 200 Systems (BioRad) according to the manufacturer's instructions. Data are reported as mean concentrations and standard deviations of triplicate wells.

[5] = PTEC-TERT1, EGF 0 ng/ml in medium
[6] = PTEC-TERT1, EGF 10 ng/ml in medium
[7] = PTEC-TERT1, 6 days, 10 ng/ml EGF in medium, 25 μM
[8] = PTEC-TERT1, 6 days, 10 ng/ml EGF in medium, 100 μM
[9] = PTEC-TERT1, 6 days, No EGF in Medium, 25 μM
[10] = PTEC-TERT1, 6 days, No EGF in Medium, 100 μM
[11] = PTEC-TERT1, Day 3, 3 μM (Table 2)
[12] = PTEC-TERT1, Day 3, 10 μM (Table 2)
[13] = PTEC-TERT1, Day 3, 11 μM (Table 3)
[14] = PTEC-TERT1, Day 3, 30 μM (Table 2)
[15] = PTEC-TERT1, Day 3, 33 μM (Table 3)
[16] = PTEC-TERT1, Day 3, 100 μM (Table 2)
[17] = PTEC-TERT1, Day 3, 100 μM (Table 3)
[18] = PTEC-TERT1, Day 6, 3 μM (Table 2)
[19] = PTEC-TERT1, Day 6, 10 μM (Table 2)
[20] = PTEC-TERT1, Day 6, 30 μM (Table 2)
[21] = PTEC-TERT1, Day 6, 100 μM (Table 2)
[22] = PTEC-TERT1, Day 7, 11 μM (Table 3)
[23] = PTEC-TERT1, Day 7, 33 μM (Table 3)
[24] = PTEC-TERT1, Day 7, 100 μM (Table 3)
[25] = PTEC-TERT1, Day 10, 11 μM (Table 3)
[26] = PTEC-TERT1, Day 10, 33 μM (Table 3)
[27] = PTEC-TERT1, Day 10, 100 μM (Table 3)

Row | Substance | In vivo nephrotoxicity / in vivo grade of toxicity [1] | morphological changes (PTEC-TERT1 cells [2]) | EGF ([3]; day 3, 10 μM) [% saline] | EGF ([3]; day 3, 100 μM) [% saline] | EGF (A549 cells; 1 ng oligonucleotide) [% saline] | EGF (A549 cells; 10 ng oligonucleotide) [% saline] | PCSK9 mRNA (PCSK9 mRNA; [5]) | PCSK9 mRNA (PCSK9 mRNA; [6]) | EGF (PTEC-TERT1 cells [4]; [7]) [pg/mL] | EGF (PTEC-TERT1 cells [4]; [8]) [pg/mL] | EGF (PTEC-TERT1 cells [4]; [9]) [pg/mL] | EGF (PTEC-TERT1 cells [4]; [10]) [pg/mL] | EGF (PTEC-TERT1 cells [4]; [11]) [% saline] | EGF (PTEC-TERT1 cells [4]; [12]) [% saline] | EGF (PTEC-TERT1 cells [4]; [13]) [% saline] | EGF (PTEC-TERT1 cells [4]; [14]) [% saline] | EGF (PTEC-TERT1 cells [4]; [15]) [% saline] | EGF (PTEC-TERT1 cells [4]; [16]) [% saline] | EGF (PTEC-TERT1 cells [4]; [17]) [% saline] | EGF (PTEC-TERT1 cells [4]; [18]) [% saline] | also measured
1 | GCtgtgtgagcttGG (antisense GCTGTGTGAGCTTGG; sugars from the 5' end l2 d11 l2, backbone and methylation of C not given here) [Compound 4-1] | high and High and Sever tox | adopted a flattened and stable appearance | 323 | 985 | 132 | 211 | 6.84 % of saline | 1.47 % of saline | 731.7 | 1957.8 | 5.4 | 5.3 | 71 | 116 | 225 | 302 | 368 | 1572 | 484 | 37 | EGF (PTEC-TERT1 cells [4]; PTEC-TERT1, 6 days, 10 μM oligonucleotide (Table 7)): 2622 % saline; Toxicity grade (PTEC-TERT1 cells [4]; PTEC-TERT1, 6 days, 10 μM): 100; EGF (PTEC-TERT1 cells [4]; PTEC-TERT1, 6 days, 30 μM oligonucleotide (Table 7)): 7311 % saline; Toxicity grade (PTEC-TERT1 cells [4]; PTEC-TERT1, 6 days, 30 μM): 100; EGF (PTEC-TERT1 cells [4]; [19]): 222 % saline; EGF (PTEC-TERT1 cells [4]; [20]): 8398 % saline; EGF (PTEC-TERT1 cells [4]; [21]): 8899 % saline; EGF (PTEC-TERT1 cells [4]; [22]): 637 % saline; EGF (PTEC-TERT1 cells [4]; [23]): 983 % saline; EGF (PTEC-TERT1 cells [4]; [24]): 983 % saline; EGF (PTEC-TERT1 cells [4]; [25]): 1177 % saline; EGF (PTEC-TERT1 cells [4]; [26]): 1865 % saline; EGF (PTEC-TERT1 cells [4]; [27]): 1792 % saline
2 | TGCtacaaaacCCA (antisense TGCTACAAAACCCA; sugars from the 5' end l3 d8 l3, backbone and methylation of C not given here) [Compound 3-1] | Medium | formed irregular domes and vacuoles | 227 | 411 | 99 | 199 | 2.28 % of saline | 1.46 % of saline | 245.0 | 341.8 | 6.3 | 12.2 | 70 | 75 | 151 | 70 | 213 | 128 | 207 | 124 | EGF (PTEC-TERT1 cells [4]; [19]): 137 % saline; EGF (PTEC-TERT1 cells [4]; [20]): 231 % saline; EGF (PTEC-TERT1 cells [4]; [21]): 2413 % saline; EGF (PTEC-TERT1 cells [4]; [22]): 168 % saline; EGF (PTEC-TERT1 cells [4]; [23]): 287 % saline; EGF (PTEC-TERT1 cells [4]; [24]): 493 % saline; EGF (PTEC-TERT1 cells [4]; [25]): 41 % saline; EGF (PTEC-TERT1 cells [4]; [26]): 138 % saline; EGF (PTEC-TERT1 cells [4]; [27]): 227 % saline
